# Measured values reported in PMC6460286 (Biochimie, 2017).
# pEC50: −log10 of the molar value. Where two headings read alike, the source gives them in different places.
# Assays:
# [1] = system: HIF PHD (HIF1 ODD-luc reporter); conditions: specific for HIF PHD; cited from earlier work
# [2] = Potassium ferricyanide reduction; assay type: physicochemical; conditions: 1 mM agent, 1 mM potassium ferricyanide, 50 mM Tris-HCl buffer, pH 7.4
# [3] = system: HIF-1 target genes (VEGF, HO-1), HIF1α, NQO-1; test: RT-PCR of HIF1 target genes in N2a cells; assay type: cell-based, mouse; conditions: 4 h
# [4] = system: HIF PHD (HIF1 ODD-luc reporter); test: HIF1 ODD-luc reporter assay in SH-SY5Y cells; assay type: cell-based; conditions: for effect on HIF1 ODD-luc reporter activation induced by Compound 8a: agents applied in equal concentration; for effect on reporter activation by HIF PHD inhibitors of various nature: NAC up to millimolar concentrations
# [5] = system: HIF1 and HIF2; conditions: cited from earlier work
# [6] = target: PHD2; conditions: ref 36 (FG-4592), ref 37 (IOX2); cited from earlier work
# [7] = system: HIF; conditions: cited from earlier work
# [8] = system: HIF PHD; conditions: cited from earlier work
# [9] = 3 h incubation, physiological L-Asc (0.04–0.1 mM)
# [10] = reporter activation by Compound 8a
structure (smiles),measurement,setting,value
"Oc1cccnc1NC(c1ccc(Cl)cc1)c1ccc2cccnc2c1O (stereo not drawn) [Compound 8, adaptaquin]",pEC50,[1],~5.70
"O=C1O[C@H]([C@H](O)CO)C(O)=C1O [D-Asc, D-isoascorbic acid]","reducing power (ferricyanide reduction kinetics), L-Asc vs D-Asc",[2],no difference in reduction kinetics
same,inhibition of HIF1 target gene activation,[3]; 100 μM co-treatment with 5 μM Compound 8a,under 10%
same,effect on HIF1 ODD-luc reporter activation induced by Compound 8a,[4]; 3 h incubation,neither D-Asc nor NAC applied in the equal concentration cause any change
same,effect on reporter activation by HIF PHD inhibitors of various nature,[4],"minor effect, if any"
"CCOC(=O)c1ccc(O)c(O)c1 [DHB, Ethyl 3,4-dihydroxybenzoate]",suppressing effect of L-Asc on reporter activation induced by the inhibitor,[4]; [9],very sensitive to L-Asc
same,pEC50,[4]; read-out: EC50 of reporter activation,3.60
"COC(=O)CNC(=O)C(=O)OC [DMOG, dimethyloxalyl glycine]",working concentration resulting in HIF1 and HIF2 stabilization,[5]; after 2 h incubation,ca. 1 mM
same,suppressing effect of L-Asc on reporter activation induced by the inhibitor,[4]; [9],pronounced for DMOG up to 250 μM
same,suppressing effect of L-Asc on reporter activation induced by the inhibitor,"[4]; higher DMOG concentrations (mM range), not shown",negligible
Cc1nc(C(=O)NCC(=O)O)c(O)c2ccc(Oc3ccccc3)cc12 [FG-4592],suppressing effect of L-Asc on reporter activation induced by the inhibitor,[4]; [9],minimal
same,concentration above which toxicity is seen,"[4]; titration up to 0.6 mM, Supplementary Fig. S2",above 100 μM
O=C(O)CNC(=O)c1c(O)c2ccccc2n(Cc2ccccc2)c1=O [IOX2],suppressing effect of L-Asc on reporter activation induced by the inhibitor,[4]; [9],minimal
same,"inhibition constant, homogeneous enzyme assay with PHD2",[6],nanomolar range
"O=C1O[C@H]([C@@H](O)CO)C(O)=C1O [L-Asc, L-ascorbic acid]",L-Asc effect on HIF stabilization induced by 1 mM monomethyloxalylglycine,[5]; immunoblotting,absence of L-Asc effect
same,"reducing power (ferricyanide reduction kinetics), L-Asc vs D-Asc",[2],no difference in reduction kinetics
same,effect of L-Asc alone on expression of HIF1 target genes,[3]; 100 μM,no changes
same,effect on HIF1 ODD-luc reporter activation induced by Compound 8a,[4]; 3 h incubation,potently suppresses
same,L-Asc concentration at which suppression is already observed,[4]; [10],10 µM
same,concentration above which L-Asc effect shows saturation,[4]; [10],above 40 μM
same,drop in magnitude of reporter activation with increase in L-Asc concentration,[4]; [10],2.5 fold
same,increase in EC50 of Compound 8a with increase in L-Asc concentration,[4]; [10],ca. 1.5 fold
same,concentration giving the comparable suppressive effect on HIF stability,[7],50 µM
same,Km,[8],~50 µM
"CC(=O)N[C@@H](CS)C(=O)O [NAC, N-acetylcysteine]",effect on HIF1 ODD-luc reporter activation induced by Compound 8a,[4]; 3 h incubation,neither D-Asc nor NAC applied in the equal concentration cause any change
same,suppressing effect on reporter activation,"[4]; NAC up to 1 mM, either drug, not shown",no suppressing effect
same,effect on reporter activation by HIF PHD inhibitors of various nature,[4],no effect
